In publication PMC6886798, “Expression of myeloid Src-family kinases is associated with poor prognosis in AML and influences Flt3-ITD kinase inhibitor acquired resistance” (PLoS ONE, 2019):

Key:
Test in all cases: KINOMEscan
Format in all cases: binding
Conditions in all cases: 1.0 µM
[1] = target: T1, AXL (Homo sapiens, UniProt P30530)
T1 construct: purchased Eurofins/DiscoverX KINOMEscan scanMAX
Procedure: (§1) Kinase retention to the immobilized ligand is then measured using quantitative real-time PCR for each kinase-specific DNA barcode.

[2] = target: T2, CAMK2A (Homo sapiens, UniProt Q9UQM7)
T2 construct: purchased Eurofins/DiscoverX KINOMEscan scanMAX
Procedure: as §1

[3] = target: T3, CAMK2D (Homo sapiens, UniProt Q13557)
T3 construct: purchased Eurofins/DiscoverX KINOMEscan scanMAX
T3 sequence (Q13557 whole entry): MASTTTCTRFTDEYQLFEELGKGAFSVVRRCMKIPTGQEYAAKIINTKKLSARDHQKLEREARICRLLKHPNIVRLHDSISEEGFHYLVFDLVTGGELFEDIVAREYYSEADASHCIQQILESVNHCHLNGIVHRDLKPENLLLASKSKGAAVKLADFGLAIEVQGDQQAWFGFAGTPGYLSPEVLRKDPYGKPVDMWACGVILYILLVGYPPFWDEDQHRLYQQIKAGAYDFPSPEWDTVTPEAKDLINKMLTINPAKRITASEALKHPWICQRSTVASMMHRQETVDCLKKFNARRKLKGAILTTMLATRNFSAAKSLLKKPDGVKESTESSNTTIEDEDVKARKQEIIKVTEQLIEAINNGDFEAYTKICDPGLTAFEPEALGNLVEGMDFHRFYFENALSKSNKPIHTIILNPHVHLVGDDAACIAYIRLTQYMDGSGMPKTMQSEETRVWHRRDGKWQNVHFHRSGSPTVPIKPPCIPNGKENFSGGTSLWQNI
Procedure: as §1

[4] = target: T4, CAMK2G (Homo sapiens, UniProt Q13555)
T4 construct: purchased Eurofins/DiscoverX KINOMEscan scanMAX
Procedure: as §1

[5] = target: T5, CDKL3 (Homo sapiens, UniProt Q8IVW4)
T5 construct: purchased Eurofins/DiscoverX KINOMEscan scanMAX
Procedure: as §1

[6] = target: T6, CLK4 (Homo sapiens, UniProt Q9HAZ1)
T6 construct: purchased Eurofins/DiscoverX KINOMEscan scanMAX
T6 sequence (Q9HAZ1 whole entry): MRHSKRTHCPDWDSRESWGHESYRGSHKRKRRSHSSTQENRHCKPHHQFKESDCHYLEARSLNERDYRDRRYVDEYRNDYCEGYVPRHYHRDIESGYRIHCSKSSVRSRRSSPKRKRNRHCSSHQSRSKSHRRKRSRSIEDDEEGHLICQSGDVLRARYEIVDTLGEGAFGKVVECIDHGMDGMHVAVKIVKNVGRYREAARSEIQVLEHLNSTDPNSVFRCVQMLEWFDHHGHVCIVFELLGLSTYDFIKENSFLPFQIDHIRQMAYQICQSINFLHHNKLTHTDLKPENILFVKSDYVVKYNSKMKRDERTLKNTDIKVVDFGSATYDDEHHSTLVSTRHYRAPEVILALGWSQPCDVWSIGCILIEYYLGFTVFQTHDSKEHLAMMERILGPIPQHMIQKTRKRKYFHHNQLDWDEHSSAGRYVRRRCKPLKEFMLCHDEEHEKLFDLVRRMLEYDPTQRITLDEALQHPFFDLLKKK
Procedure: as §1

[7] = target: T7, CSNK1E (Homo sapiens, UniProt P49674)
T7 construct: purchased Eurofins/DiscoverX KINOMEscan scanMAX
Procedure: as §1

[8] = target: T8, CTK (Homo sapiens, UniProt P42679)
T8 construct: purchased Eurofins/DiscoverX KINOMEscan scanMAX
Procedure: as §1

[9] = target: T9, DDR1 (Homo sapiens, UniProt Q08345)
T9 construct: purchased Eurofins/DiscoverX KINOMEscan scanMAX
Procedure: as §1

[10] = target: T10, DLK (Homo sapiens, UniProt Q12852)
T10 construct: purchased Eurofins/DiscoverX KINOMEscan scanMAX
T10 sequence (Q12852 whole entry): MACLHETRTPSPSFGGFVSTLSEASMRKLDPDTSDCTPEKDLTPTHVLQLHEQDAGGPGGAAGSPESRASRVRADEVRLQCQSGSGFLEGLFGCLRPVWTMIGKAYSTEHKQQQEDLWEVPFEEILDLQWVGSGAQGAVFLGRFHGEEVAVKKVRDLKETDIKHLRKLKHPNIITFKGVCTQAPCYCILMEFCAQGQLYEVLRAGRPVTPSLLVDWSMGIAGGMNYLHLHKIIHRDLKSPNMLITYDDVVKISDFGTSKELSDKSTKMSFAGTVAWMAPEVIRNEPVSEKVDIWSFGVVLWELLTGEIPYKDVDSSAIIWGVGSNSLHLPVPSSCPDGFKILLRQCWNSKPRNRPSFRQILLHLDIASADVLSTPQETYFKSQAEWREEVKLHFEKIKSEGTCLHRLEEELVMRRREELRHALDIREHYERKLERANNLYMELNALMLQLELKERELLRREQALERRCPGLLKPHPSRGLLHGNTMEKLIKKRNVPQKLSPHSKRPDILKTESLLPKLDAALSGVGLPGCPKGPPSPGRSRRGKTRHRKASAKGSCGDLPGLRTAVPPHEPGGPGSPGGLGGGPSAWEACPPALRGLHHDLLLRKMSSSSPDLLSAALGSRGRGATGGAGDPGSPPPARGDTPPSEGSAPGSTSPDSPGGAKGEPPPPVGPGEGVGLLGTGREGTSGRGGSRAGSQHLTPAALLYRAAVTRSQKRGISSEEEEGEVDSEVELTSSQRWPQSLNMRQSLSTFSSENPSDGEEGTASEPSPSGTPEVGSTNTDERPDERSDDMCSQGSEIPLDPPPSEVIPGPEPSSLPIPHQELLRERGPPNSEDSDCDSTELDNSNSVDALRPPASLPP
Procedure: as §1

[11] = target: T11, DMPK2 (Homo sapiens, UniProt Q6DT37)
T11 construct: purchased Eurofins/DiscoverX KINOMEscan scanMAX
Procedure: as §1

[12] = target: T12, EPHA4 (Homo sapiens, UniProt P54764)
T12 construct: purchased Eurofins/DiscoverX KINOMEscan scanMAX
Procedure: as §1

[13] = target: T13, ERBB4 (Homo sapiens, UniProt Q15303)
T13 construct: purchased Eurofins/DiscoverX KINOMEscan scanMAX
T13 sequence (Q15303 26-1308): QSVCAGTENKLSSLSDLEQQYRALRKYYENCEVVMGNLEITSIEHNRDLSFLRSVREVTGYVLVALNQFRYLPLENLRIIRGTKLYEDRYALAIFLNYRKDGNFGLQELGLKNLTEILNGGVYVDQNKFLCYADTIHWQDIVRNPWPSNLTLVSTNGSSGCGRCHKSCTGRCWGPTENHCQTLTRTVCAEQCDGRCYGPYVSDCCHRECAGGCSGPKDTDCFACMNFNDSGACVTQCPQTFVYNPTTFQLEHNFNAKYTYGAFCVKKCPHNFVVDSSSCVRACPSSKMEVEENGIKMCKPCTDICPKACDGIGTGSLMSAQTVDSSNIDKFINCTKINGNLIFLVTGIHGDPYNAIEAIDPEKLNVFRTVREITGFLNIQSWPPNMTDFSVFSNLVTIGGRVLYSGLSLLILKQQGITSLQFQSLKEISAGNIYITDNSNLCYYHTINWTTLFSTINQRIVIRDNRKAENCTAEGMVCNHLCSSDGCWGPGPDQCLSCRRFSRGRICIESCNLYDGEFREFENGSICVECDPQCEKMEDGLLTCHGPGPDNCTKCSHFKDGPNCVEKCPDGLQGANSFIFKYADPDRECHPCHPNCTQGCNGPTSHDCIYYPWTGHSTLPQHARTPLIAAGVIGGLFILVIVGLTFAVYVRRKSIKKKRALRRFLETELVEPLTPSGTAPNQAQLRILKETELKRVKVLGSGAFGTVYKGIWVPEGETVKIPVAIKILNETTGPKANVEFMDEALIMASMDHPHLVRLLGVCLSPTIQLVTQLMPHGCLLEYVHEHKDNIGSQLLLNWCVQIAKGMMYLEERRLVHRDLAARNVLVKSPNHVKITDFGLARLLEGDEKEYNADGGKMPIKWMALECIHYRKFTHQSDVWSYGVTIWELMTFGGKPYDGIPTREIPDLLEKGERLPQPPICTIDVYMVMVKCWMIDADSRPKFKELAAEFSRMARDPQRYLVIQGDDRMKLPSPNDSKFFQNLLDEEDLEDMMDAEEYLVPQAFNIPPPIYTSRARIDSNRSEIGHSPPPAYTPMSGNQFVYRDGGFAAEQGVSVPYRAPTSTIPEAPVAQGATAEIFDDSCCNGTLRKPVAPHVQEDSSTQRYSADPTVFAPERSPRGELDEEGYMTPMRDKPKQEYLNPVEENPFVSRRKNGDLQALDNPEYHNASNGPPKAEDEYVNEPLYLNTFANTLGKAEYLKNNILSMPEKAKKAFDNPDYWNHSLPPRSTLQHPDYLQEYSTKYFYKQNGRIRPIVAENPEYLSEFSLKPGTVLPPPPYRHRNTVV
Procedure: as §1

[14] = target: T14, GRK7 (Homo sapiens, UniProt Q8WTQ7)
T14 construct: purchased Eurofins/DiscoverX KINOMEscan scanMAX
Procedure: as §1

[15] = target: T15, HIPK4 (Homo sapiens, UniProt Q8NE63)
T15 construct: purchased Eurofins/DiscoverX KINOMEscan scanMAX
Procedure: as §1

[16] = target: T16, IRAK4 (Homo sapiens, UniProt Q9NWZ3)
T16 construct: purchased Eurofins/DiscoverX KINOMEscan scanMAX
T16 sequence (Q9NWZ3 whole entry): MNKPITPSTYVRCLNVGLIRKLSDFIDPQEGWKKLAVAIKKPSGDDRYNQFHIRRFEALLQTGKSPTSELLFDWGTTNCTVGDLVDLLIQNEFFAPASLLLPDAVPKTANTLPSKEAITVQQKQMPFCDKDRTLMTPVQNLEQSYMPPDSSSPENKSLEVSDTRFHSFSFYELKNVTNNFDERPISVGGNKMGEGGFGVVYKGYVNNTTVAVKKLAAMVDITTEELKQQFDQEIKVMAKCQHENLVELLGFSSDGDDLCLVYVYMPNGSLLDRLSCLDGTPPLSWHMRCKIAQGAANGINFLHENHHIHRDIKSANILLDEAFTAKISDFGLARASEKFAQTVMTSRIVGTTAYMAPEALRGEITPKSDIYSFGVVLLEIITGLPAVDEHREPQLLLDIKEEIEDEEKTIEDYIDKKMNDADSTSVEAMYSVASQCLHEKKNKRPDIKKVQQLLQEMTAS
Procedure: as §1

[17] = target: T17, JAK1(JH2domain-pseudokinase) (Homo sapiens, UniProt P23458)
T17 construct: JAK1(JH2domain-pseudokinase); purchased Eurofins/DiscoverX KINOMEscan scanMAX
Procedure: as §1

[18] = target: T18, JNK1 (Homo sapiens, UniProt P45983)
T18 construct: purchased Eurofins/DiscoverX KINOMEscan scanMAX
Procedure: as §1

[19] = target: T19, KIT(L576P) (Homo sapiens, UniProt P10721, L576P)
T19 construct: purchased Eurofins/DiscoverX KINOMEscan scanMAX
Procedure: as §1

[20] = target: T20, KIT(V559D,V654A) (Homo sapiens, UniProt P10721, V559D/V654A)
T20 construct: purchased Eurofins/DiscoverX KINOMEscan scanMAX
Procedure: as §1

[21] = target: T21, MAP3K3 (Homo sapiens, UniProt Q99759)
T21 construct: purchased Eurofins/DiscoverX KINOMEscan scanMAX
T21 sequence (Q99759 whole entry): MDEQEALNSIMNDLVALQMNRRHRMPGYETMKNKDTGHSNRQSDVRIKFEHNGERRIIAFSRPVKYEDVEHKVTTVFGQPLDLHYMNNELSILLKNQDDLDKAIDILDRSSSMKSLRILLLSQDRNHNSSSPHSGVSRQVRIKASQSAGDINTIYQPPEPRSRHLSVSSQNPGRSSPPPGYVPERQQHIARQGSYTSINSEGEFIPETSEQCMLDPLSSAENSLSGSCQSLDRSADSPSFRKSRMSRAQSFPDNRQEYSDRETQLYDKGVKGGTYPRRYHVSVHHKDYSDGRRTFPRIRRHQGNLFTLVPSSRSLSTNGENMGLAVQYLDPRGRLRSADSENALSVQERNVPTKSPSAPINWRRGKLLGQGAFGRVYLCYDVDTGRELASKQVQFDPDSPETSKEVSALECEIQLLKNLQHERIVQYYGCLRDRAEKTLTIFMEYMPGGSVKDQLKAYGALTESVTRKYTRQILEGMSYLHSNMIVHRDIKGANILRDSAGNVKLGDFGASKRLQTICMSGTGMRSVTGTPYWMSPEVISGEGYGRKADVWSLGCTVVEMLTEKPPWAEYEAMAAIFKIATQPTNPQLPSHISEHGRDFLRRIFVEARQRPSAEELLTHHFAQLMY
Procedure: as §1

[22] = target: T22, MARK3 (Homo sapiens, UniProt P27448)
T22 construct: purchased Eurofins/DiscoverX KINOMEscan scanMAX
Procedure: as §1

[23] = target: T23, MEK3 (Homo sapiens, UniProt P46734)
T23 construct: purchased Eurofins/DiscoverX KINOMEscan scanMAX
Procedure: as §1

[24] = target: T24, MEK5 (Homo sapiens, UniProt Q13163)
T24 construct: purchased Eurofins/DiscoverX KINOMEscan scanMAX
Procedure: as §1

[25] = target: T25, MKNK1 (Homo sapiens, UniProt Q9BUB5)
T25 construct: purchased Eurofins/DiscoverX KINOMEscan scanMAX
Procedure: as §1

[26] = target: T26, NEK4 (Homo sapiens, UniProt P51957)
T26 construct: purchased Eurofins/DiscoverX KINOMEscan scanMAX
Procedure: as §1

[27] = target: T27, NEK7 (Homo sapiens, UniProt Q8TDX7)
T27 construct: purchased Eurofins/DiscoverX KINOMEscan scanMAX
Procedure: as §1

[28] = target: T28, NIM1 (Homo sapiens, UniProt Q8IY84)
T28 construct: purchased Eurofins/DiscoverX KINOMEscan scanMAX
Procedure: as §1

[29] = target: T29, PAK4 (Homo sapiens, UniProt O96013)
T29 construct: purchased Eurofins/DiscoverX KINOMEscan scanMAX
T29 sequence (O96013 whole entry): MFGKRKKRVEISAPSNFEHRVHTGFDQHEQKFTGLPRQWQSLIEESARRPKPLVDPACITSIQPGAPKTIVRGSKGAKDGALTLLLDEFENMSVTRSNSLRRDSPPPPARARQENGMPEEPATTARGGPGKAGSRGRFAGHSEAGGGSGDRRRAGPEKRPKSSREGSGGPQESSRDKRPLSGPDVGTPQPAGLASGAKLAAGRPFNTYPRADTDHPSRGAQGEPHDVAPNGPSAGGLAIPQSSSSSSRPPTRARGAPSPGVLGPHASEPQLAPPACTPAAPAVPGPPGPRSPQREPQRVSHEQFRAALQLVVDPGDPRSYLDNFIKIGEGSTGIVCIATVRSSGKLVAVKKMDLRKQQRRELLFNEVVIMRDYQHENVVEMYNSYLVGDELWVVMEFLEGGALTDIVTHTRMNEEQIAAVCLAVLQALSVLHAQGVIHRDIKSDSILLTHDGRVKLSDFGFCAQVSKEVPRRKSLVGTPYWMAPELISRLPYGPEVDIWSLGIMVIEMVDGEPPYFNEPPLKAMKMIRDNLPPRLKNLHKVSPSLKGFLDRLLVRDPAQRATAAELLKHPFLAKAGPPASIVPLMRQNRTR
Procedure: as §1

[30] = target: T30, PIK3CA (Homo sapiens, UniProt P42336)
T30 construct: purchased Eurofins/DiscoverX KINOMEscan scanMAX
Procedure: as §1

[31] = target: T31, PIK3CA(C420R) (Homo sapiens, UniProt P42336, C420R)
T31 construct: purchased Eurofins/DiscoverX KINOMEscan scanMAX
Procedure: as §1

[32] = target: T32, PIM1 (Homo sapiens, UniProt P11309)
T32 construct: purchased Eurofins/DiscoverX KINOMEscan scanMAX
Procedure: as §1

[33] = target: T33, PIP5K2B (Homo sapiens, UniProt P78356)
T33 construct: purchased Eurofins/DiscoverX KINOMEscan scanMAX
Procedure: as §1

[34] = target: T34, PKN2 (Homo sapiens, UniProt Q16513)
T34 construct: purchased Eurofins/DiscoverX KINOMEscan scanMAX
Procedure: as §1

[35] = target: T35, PLK4 (Homo sapiens, UniProt O00444)
T35 construct: purchased Eurofins/DiscoverX KINOMEscan scanMAX
Procedure: as §1

[36] = target: T36, PYK2 (Homo sapiens, UniProt Q14289)
T36 construct: purchased Eurofins/DiscoverX KINOMEscan scanMAX
Procedure: as §1

[37] = target: T37, RPS6KA4(Kin.Dom.1-N-terminal) (Homo sapiens, UniProt O75676)
T37 construct: RPS6KA4(Kin.Dom.1-N-terminal); purchased Eurofins/DiscoverX KINOMEscan scanMAX
Procedure: as §1

[38] = target: T38, RSK1(Kin.Dom.2-C-terminal) (Homo sapiens, UniProt Q15418)
T38 construct: RSK1(Kin.Dom.2-C-terminal); purchased Eurofins/DiscoverX KINOMEscan scanMAX
Procedure: as §1

[39] = target: T39, TIE2 (Homo sapiens, UniProt Q02763)
T39 construct: purchased Eurofins/DiscoverX KINOMEscan scanMAX
Procedure: as §1

[40] = target: T40, VPS34 (Homo sapiens, UniProt Q8NEB9)
T40 construct: DNA tag (qPCR barcode); purchased Eurofins/DiscoverX KINOMEscan scanMAX
Procedure: as §1

[41] = target: T41, YANK1 (Homo sapiens, UniProt Q8WU08)
T41 construct: DNA tag (qPCR barcode); purchased Eurofins/DiscoverX KINOMEscan scanMAX
Procedure: as §1

Compound: CN1CCN(C2CCC(n3cc(-c4ccc(Oc5ccccc5)cc4)c4c(N)ncnc43)CC2)CC1 (centres unmarked) [A-419259]
- % Control [1]: 6.1%
- % Control [2]: 88%
- % Control [3]: 100%
- % Control [4]: 100%
- % Control [5]: 100%
- % Control [6]: 100%
- % Control [7]: 1.1%
- % Control [8]: 89%
- % Control [9]: 65%
- % Control [10]: 54%
- % Control [11]: 36%
- % Control [12]: 100%
- % Control [13]: 0%
- % Control [14]: 62%
- % Control [15]: 63%
- % Control [16]: 90%
- % Control [17]: 100%
- % Control [18]: 95%
- % Control [19]: 0%
- % Control [20]: 18%
- % Control [21]: 6.3%
- % Control [22]: 83%
- % Control [23]: 91%
- % Control [24]: 0.25%
- % Control [25]: 63%
- % Control [26]: 100%
- % Control [27]: 91%
- % Control [28]: 100%
- % Control [29]: 93%
- % Control [30]: 100%
- % Control [31]: 100%
- % Control [32]: 100%
- % Control [33]: 94%
- % Control [34]: 100%
- % Control [35]: 100%
- % Control [36]: 88%
- % Control [37]: 66%
- % Control [38]: 84%
- % Control [39]: 15%
- % Control [40]: 63%
- % Control [41]: 30%
